In patent publication US6407250B1, “Interphenylene 7-oxabicyclic [2.2.1] heptane oxazoles as prostaglandin F2a antagonists” (Allergan Sales, Inc., priority 2000, dated 2002):

Molecular target: T1, human FP receptor (Homo sapiens, UniProt P43088)
T1 construct: expressed in transfected cells
Test: Ca2+ signaling: antagonism of the 17-phenyl PGF2α response in HEK cells stably transfected with the human FP receptor
Type: cell-based
Details: compared with the compound of U.S. Pat. Nos. 5,100,889 and 5,153,327
Experimental: The compound of Example 22 was tested for PGF2αantagonist activity as follows:
HEK cells stably transfected with the human FP receptor were removed from the culture flasks by approximately 1 min treatment with trypsin 0.05%/0.53 mM EDTA in HBSS (Gibco, Grand Island, N.Y.) at 37° C. Proteolytic activity was arrested by adding 5 ml of 10% fetal bovine serum in DMEM. The cells were consecutively washed in Hank's BSS and medium containing 140 mM NaCl, […], 1 mM MgCl2, 1.5 mM CaCl2, 10 mM HEPES: TRIS, 5 mM glucose, 5 mM Na pyruvate, 0.1% bovine serum albumin at pH 7.4: centrifugation for the washes was performed for 15 minutes at 200 g at room temperature. Cells were counted, resuspended in the above medium and incubated with 2×10^−6 M Fura 2/acetoxymethyl ester in a shaking water bath for 30 minutes at 37° C. The cells were subsequently washed in medium as above and resuspended at a concentration of 2×10^6 cells ml^−1. Aliquots of 0.5 ml cell suspension were then added to autocap microtubes to provide 10^6 cells per experimental determination of intracellular free Ca^2+concentration ([Ca^2+]i).
Fluorescence was measured in a Perkin-Elmer LS-5 fluorescence spectrophotometer at excitation and emission wavelengths of 340 and 492 nm, respectively, with both slits at 10 nm. […]

T1 sequence (P43088 whole entry): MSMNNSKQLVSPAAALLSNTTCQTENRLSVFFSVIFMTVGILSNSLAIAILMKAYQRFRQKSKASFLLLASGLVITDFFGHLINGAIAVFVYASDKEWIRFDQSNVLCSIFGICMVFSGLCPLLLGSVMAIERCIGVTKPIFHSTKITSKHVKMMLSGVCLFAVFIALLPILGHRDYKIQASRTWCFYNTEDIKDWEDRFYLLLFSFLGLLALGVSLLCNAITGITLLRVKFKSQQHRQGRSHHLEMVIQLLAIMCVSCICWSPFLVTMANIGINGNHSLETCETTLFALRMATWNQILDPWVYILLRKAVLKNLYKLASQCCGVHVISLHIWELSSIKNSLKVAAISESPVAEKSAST

| Structure (SMILES) | PGF2α antagonist activity (comparison in words) |
| --- | --- |
| COC(=O)CCc1ccccc1CC1C2CCC(O2)C1c1nc(C(=O)NCCCCC2CCCCC2)co1 (centres unmarked) | much less active than the corresponding acid |
| O=C(O)CCc1ccc(F)cc1C[C@@H]1[C@H](c2nc(C(=O)NCCCCC3CCCCC3)co2)[C@H]2CC[C@H]1O2 [Example 22, 3-(2-{(1R, 2R, 3S, 4R)-3-[4-(4-Cyclohexyl-butylcarbamoyl)-oxazol-2-yl]-7-oxa-bicyclo[2.2.1]hept-2-ylmethyl}-4-fluoro-phenyl)-propionic acid] | greater than the compound disclosed in U.S. Pat. Nos. 5,100,889 and 5,153,327 |
